Legend:
[1] = easily converted into by-products if pH lower than 3.0 or temperature reaches 60° C. during pH lowering; per U.S. Pat. No. 6,441,168 B1; cited from earlier work
[2] = Solubility in water or hydroalcoholic mixtures; assay type: physicochemical; settings: pH range between 3.0 and 4.5
[3] = Accelerated stability test (ICH conditions); assay type: physicochemical; settings: accelerated: 40±2° C., 75±5% relative humidity; for Assay of Levofolinic acid (% m/m): anhydrous and solvent free basis; for Appearance: specification white to pale yellow powder
Protocol: (§1) Two specimens of the product obtained in example 1 are subjected to accelerated stability tests and long-term stability tests, respectively; the tests are carried out according to ICH conditions. Accelerated: 40±2° C., 75±5% relative humidity Analytical methods used for the stability studies tests are described in the calcium levofolinate monograph of the European Pharmacopoeia.

[4] = Long-term stability test (ICH conditions); assay type: physicochemical; settings: long-term: 25±2° C., 60±5% relative humidity; for Assay of Levofolinic acid (% m/m): anhydrous and solvent free basis; for Appearance: specification white to pale yellow powder
Protocol: as §1, with “Long-term: 25±2°” for “Accelerated: 40±2°”, “60±5%” for “75±5%”

Solubility [2]: scarcely soluble | Aspect of a 1.0% w/v solution in Tris buffer solution corrected at pH = 8.1: Absorbance at 420 nm ([3]; 0 months): 0.06 | Content of Dextrofolinic acid (H) ([3]; 0 months): <0.10% | Optical rotation of a 1.0% w/v solution in Tris solution corrected at pH = 8.1 ([3]; 0 months): −12.8 ° | Related substances: 5-CHO—4H-Pteroic acid (E) (% area) ([3]; 0 months): 0.36 % area | Related substances: Any individual unknown impurities ([3]; 0 months): <0.10 % area | Related substances: Dihydrofolic acid (G) (% area) ([3]; 0 months): <0.10 % area | Related substances: Folic acid (C) (% area) ([3]; 0 months): <0.10 % area | Related substances: N^5-N^10-diformyl-THF (B) (% area) ([3]; 0 months): <0.10 % area | Related substances: N^10—CHO-dihydrofolic acid (F) (% area) ([3]; 0 months): <0.10 % area | Related substances: N^10—CHO-folic acid (D) (% m/m) ([3]; 0 months): <0.10 % m/m | Related substances: PABG (A) (% area) ([3]; 0 months): <0.10 % area | Sum of all relates substances (% area) ([3]; 0 months): 0.57 % area | Water content (%) ([3]; 0 months): 0.8% | Assay of Levofolinic acid (% m/m) ([3]; 0 months): 99.7 % m/m | Appearance ([3]; 0 months): Conform | Aspect of a 1.0% w/v solution in Tris buffer solution corrected at pH = 8.1: Absorbance at 420 nm ([3]; 3 months): 0.05 | Related substances: 5-CHO—4H-Pteroic acid (E) (% area) ([3]; 3 months): 0.37 % area | Related substances: Any individual unknown impurities ([3]; 3 months): <0.10 % area | Related substances: Dihydrofolic acid (G) (% area) ([3]; 3 months): <0.10 % area | Related substances: Folic acid (C) (% area) ([3]; 3 months): <0.10 % area | Related substances: N^5-N^10-diformyl-THF (B) (% area) ([3]; 3 months): <0.10 % area | Related substances: N^10—CHO-dihydrofolic acid (F) (% area) ([3]; 3 months): 0.16 % area | Related substances: N^10—CHO-folic acid (D) (% m/m) ([3]; 3 months): <0.10 % m/m | Related substances: PABG (A) (% area) ([3]; 3 months): <0.10 % area | Sum of all relates substances (% area) ([3]; 3 months): 0.63 % area | Water content (%) ([3]; 3 months): 0.8% | Assay of Levofolinic acid (% m/m) ([3]; 3 months): 99.9 % m/m | Appearance ([3]; 3 months): Conform | Aspect of a 1.0% w/v solution in Tris buffer solution corrected at pH = 8.1: Absorbance at 420 nm ([3]; 6 months): 0.06 | Content of Dextrofolinic acid (H) ([3]; 6 months): <0.10% | Related substances: 5-CHO—4H-Pteroic acid (E) (% area) ([3]; 6 months): 0.33 % area | Related substances: Any individual unknown impurities ([3]; 6 months): <0.10 % area | Related substances: Dihydrofolic acid (G) (% area) ([3]; 6 months): <0.10 % area | Related substances: Folic acid (C) (% area) ([3]; 6 months): <0.10 % area | Related substances: N^5-N^10-diformyl-THF (B) (% area) ([3]; 6 months): <0.10 % area | Related substances: N^10—CHO-dihydrofolic acid (F) (% area) ([3]; 6 months): 0.25 % area | Related substances: N^10—CHO-folic acid (D) (% m/m) ([3]; 6 months): <0.10 % m/m | Related substances: PABG (A) (% area) ([3]; 6 months): 0.13 % area | Sum of all relates substances (% area) ([3]; 6 months): 0.84 % area | Water content (%) ([3]; 6 months): 1.1% | Assay of Levofolinic acid (% m/m) ([3]; 6 months): 99.0 % m/m | Appearance ([3]; 6 months): Conform | Aspect of a 1.0% m/V solution in Tris solution corrected at pH = 8.1: Absorbance at 420 nm ([4]; 0 months): 0.06 | Content of Dextrofolinic acid (H) ([4]; 0 months): <0.10% | Optical rotation of a 1.0% m/V solution in Tris solution corrected at pH = 8.1 ([4]; 0 months): −12.8 ° | Related substances: 5-CHO-4H-Pteroic acid (E) (% area) ([4]; 0 months): 0.36 % area | Related substances: Any individual unknown impurities ([4]; 0 months): <0.10 % area | Related substances: Dihydrofolic acid (G) (% area) ([4]; 0 months): <0.10 % area | Related substances: Folic acid (C) (% area) ([4]; 0 months): <0.10 % area | Related substances: N^5-N^10-diformyl-THF (B) (% area) ([4]; 0 months): <0.10 % area | Related substances: N^10-CHO-dihydrofolic acid (F) (% area) ([4]; 0 months): <0.10 % area | Related substances: N^10-CHO-folic acid (D) (% m/m) ([4]; 0 months): <0.10 % m/m | Related substances: PABG (A) (% area) ([4]; 0 months): <0.10 % area | Sum of all relates substances (% area) ([4]; 0 months): 0.57 % area | Water content (%) ([4]; 0 months): 0.8% | Assay of Levofolinic acid (% m/m) ([4]; 0 months): 99.7 % m/m | Appearance ([4]; 0 months): Conform | Aspect of a 1.0% m/V solution in Tris solution corrected at pH = 8.1: Absorbance at 420 nm ([4]; 3 months): 0.05 | Related substances: 5-CHO-4H-Pteroic acid (E) (% area) ([4]; 3 months): 0.31 % area | Related substances: Any individual unknown impurities ([4]; 3 months): <0.10 % area | Related substances: Dihydrofolic acid (G) (% area) ([4]; 3 months): <0.10 % area | Related substances: Folic acid (C) (% area) ([4]; 3 months): <0.10 % area | Related substances: N^5-N^10-diformyl-THF (B) (% area) ([4]; 3 months): <0.10 % area | Related substances: N^10-CHO-dihydrofolic acid (F) (% area) ([4]; 3 months): 0.13 % area | Related substances: N^10-CHO-folic acid (D) (% m/m) ([4]; 3 months): <0.10 % m/m | Related substances: PABG (A) (% area) ([4]; 3 months): <0.10 % area | Sum of all relates substances (% area) ([4]; 3 months): 0.49 % area | Water content (%) ([4]; 3 months): 0.8% | Assay of Levofolinic acid (% m/m) ([4]; 3 months): 100.6 % m/m | Appearance ([4]; 3 months): Conform | Aspect of a 1.0% m/V solution in Tris solution corrected at pH = 8.1: Absorbance at 420 nm ([4]; 6 months): 0.06 | Content of Dextrofolinic acid (H) ([4]; 6 months): <0.10% | Related substances: 5-CHO-4H-Pteroic acid (E) (% area) ([4]; 6 months): 0.34 % area | Related substances: Any individual unknown impurities ([4]; 6 months): <0.10 % area | Related substances: Dihydrofolic acid (G) (% area) ([4]; 6 months): <0.10 % area | Related substances: Folic acid (C) (% area) ([4]; 6 months): <0.10 % area
SMILES: Nc1nc(=O)c2c([nH]1)NC[C@H](CNc1ccc(C(=O)N[C@@H](CCC(=O)O)C(=O)O)cc1)N2C=O [Example 1, (6S)—N(5)-formyl-5,6,7,8-tetrahydrofolic acid]
Stability [1]: unstable
